Here are results for nine molecules from US7994198B2, “Piperidinetriol derivatives as inhibitors of glycosylceramidsynthase” (Actelion Pharmaceuticals Ltd., priority 2002, dated 2011).

pIC50: −log10 of the molar value. Where two headings read alike, the source gives them in different places. Where only a bound is given, the exact number is not on record here.

For assay [1], the target named is T1, non-lysosomal-β-glucocerebrosidase (Homo sapiens, UniProt Q9HCG7).
T1 construct: endogenous in cells; host or cells: MCF7 whole cell extracts
T1 sequence (Q9HCG7 1-927): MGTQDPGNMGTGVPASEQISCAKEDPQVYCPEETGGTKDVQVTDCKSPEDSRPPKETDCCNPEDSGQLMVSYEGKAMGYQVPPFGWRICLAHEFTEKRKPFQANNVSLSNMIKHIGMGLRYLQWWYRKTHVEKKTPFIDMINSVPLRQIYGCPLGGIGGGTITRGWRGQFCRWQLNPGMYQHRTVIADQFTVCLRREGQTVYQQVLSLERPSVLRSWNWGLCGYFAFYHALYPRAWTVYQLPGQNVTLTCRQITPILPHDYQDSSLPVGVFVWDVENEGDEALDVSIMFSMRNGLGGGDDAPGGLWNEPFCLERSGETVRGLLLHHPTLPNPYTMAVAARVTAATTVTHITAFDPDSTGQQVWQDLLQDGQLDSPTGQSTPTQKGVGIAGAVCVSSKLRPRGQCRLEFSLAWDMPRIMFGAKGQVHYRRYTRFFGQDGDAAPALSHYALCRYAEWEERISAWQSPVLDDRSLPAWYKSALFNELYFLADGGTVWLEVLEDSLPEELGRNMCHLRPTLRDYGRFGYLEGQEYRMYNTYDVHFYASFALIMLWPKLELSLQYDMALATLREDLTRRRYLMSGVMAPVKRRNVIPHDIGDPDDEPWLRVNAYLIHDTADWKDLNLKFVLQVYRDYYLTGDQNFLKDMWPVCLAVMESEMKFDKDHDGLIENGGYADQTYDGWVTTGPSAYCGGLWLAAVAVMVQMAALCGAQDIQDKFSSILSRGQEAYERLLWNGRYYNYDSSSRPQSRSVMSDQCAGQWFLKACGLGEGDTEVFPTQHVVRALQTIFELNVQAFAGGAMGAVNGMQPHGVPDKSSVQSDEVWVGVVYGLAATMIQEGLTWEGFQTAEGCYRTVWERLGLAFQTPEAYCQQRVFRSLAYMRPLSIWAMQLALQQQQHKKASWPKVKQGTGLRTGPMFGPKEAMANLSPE
Description: Inhibition of non-lysosomal-β-glucocerebrosidase (whole cell extracts of MCF7). The format is biochemical. On the procedure: The assay for inhibition of non-lysosomal-β-glucocerebrosidase was essentially carried out as described in Overkleeft, H. S. et al., J. Biol. Chem., (1998) 273, 26522-26527 with the following differences: whole cell extracts of MCF7 (a human breast carcinoma cell line) was used as the source of the enzyme instead of splenic membrane suspensions; 5mM instead of 3Mm, 4-MU β-glucoside was used as substrate and 0.2M citrate/phosphate (pH 5.8) was used instead of McIlvaine buffer.

In assay [2] the target is T2, human GCS (Homo sapiens, UniProt Q16739).
T2 sequence (Q16739 1-394): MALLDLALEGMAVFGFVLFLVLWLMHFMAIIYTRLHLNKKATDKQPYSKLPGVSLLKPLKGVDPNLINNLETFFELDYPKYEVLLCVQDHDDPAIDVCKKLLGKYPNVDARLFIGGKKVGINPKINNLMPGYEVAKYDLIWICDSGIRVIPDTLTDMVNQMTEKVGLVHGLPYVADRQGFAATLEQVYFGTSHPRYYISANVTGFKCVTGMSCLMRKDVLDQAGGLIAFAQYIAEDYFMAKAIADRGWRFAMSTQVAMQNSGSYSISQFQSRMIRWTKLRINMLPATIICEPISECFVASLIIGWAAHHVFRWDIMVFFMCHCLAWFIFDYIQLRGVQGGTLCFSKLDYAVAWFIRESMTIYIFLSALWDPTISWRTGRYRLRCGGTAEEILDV
In words: Inhibition of GCS (human recombinant GCS expressed in insect cells). Also on record: made in house; host or cells: insect cells. The format is biochemical.

For another assay, the system named is glycolipid biosynthesis. To be noted: as disclosed in EP-A-0698012; cited from earlier work.
The target in assay [3] is T2, human GCS. Description: Cell-based IC50 for GCS inhibition by measuring glucosylceramide (GlcCer) depletion in MCF-7 cells. Particulars: MCF-7 cells cultured 5-7 days; GlcCer depletion by HPTLC; read-out: Inhibition of GCS Cellular-based (IC50 μM).

On to `CCCN(CCC)c1ccc(CN2C[C@H](O)[C@@H](O)[C@@H](O)[C@@H]2CO)cc1C#N` [Example 4, 3,4,5-Piperidinetriol, 1-[(3-cyano-4-(dipropylamino)phenyl)methyl]-2-(hydroxymethyl), (2S,3S,4R,5S)], for which the IC50 is 1.93 µM in assay [1] (MCF7 whole cell extract, 5mM 4-MU β-glucoside, citrate/phosphate pH 5.8, read-out: Inhibition of non-lysosomal-β-glucocerebrosidase (IC50 μM)) and 0.62 µM on human GCS [2].

For `CCCCN1C[C@@H](O)[C@H](O)[C@H](O)[C@@H]1C` [NB-DFJ], the “Inhibition of glycolipid biosynthesis” value in the assay on glycolipid biosynthesis is reported as “do not act as inhibitors of glycolipid biosynthesis”.

With `C[C@@H](NC(=O)c1ccc(CN2C[C@H](O)[C@@H](O)[C@@H](O)[C@@H]2CO)cc1)c1ccccc1` [Example 6, Benzamide, N-[1-(R)-(phenyl)ethyl]4-[[(2S,3S,4R,5S)-3,4,5-trihydroxy-2-(hydroxymethyl)-1-piperidinyl]methyl]-,], the IC50 on human GCS [3] came to 1 µM.

As for `CCCCN1C[C@@H](O)[C@@H](O)[C@H](O)[C@H]1CO` [NB-DMJ], the “Inhibition of glycolipid biosynthesis” value in the assay on glycolipid biosynthesis is reported as “do not act as inhibitors of glycolipid biosynthesis”.

On to `OC[C@H]1[C@H](O)[C@H](O)[C@@H](O)CN1Cc1ccc(OCc2ccccc2)cc1` [Example 2, 3,4,5-Piperidinetriol, 2-(hydroxymethyl)-1-[[4-(phenylmethoxy)phenyl]methyl]-, (2S,3S,4R,5S)], for which the pIC50 in assay [1] was 5.03. The figures for the IC50 at human GCS [2] and at human GCS [3] were 0.66 µM and < 0.1 µM, respectively.

Consider `O=C(NCc1ccc(F)cc1)c1ccc(CN2C[C@H](O)[C@@H](O)[C@@H](O)[C@@H]2CO)cc1` [Example 1, Benzamide, N-[(4-fluorophenyl)methyl]4-[[(2S,3S,4R,5S)-3,4,5-trihydroxy-2-(hydroxymethyl)-1-piperidinyl]methyl]-,], for which the IC50 on human GCS [2] turned out to be 2.2 µM.

On to `CCCCN1C[C@H](NC(C)=O)[C@@H](O)[C@H](O)[C@H]1CO` [NB-NAG], for which the “Inhibition of glycolipid biosynthesis” value with glycolipid biosynthesis is on record as “do not act as inhibitors of glycolipid biosynthesis”.

In the case of `C[C@@H](NC(=O)c1ccc(CN2C[C@H](O)[C@@H](O)[C@@H](O)[C@@H]2CO)cc1)c1ccc(F)cc1` [Example 7, Benzamide, N-[1-(R)-(4-fluorophenyl)ethyl]-4-[[(2S,3S,4R,5S)-3,4,5-trihydroxy-2-(hydroxymethyl)-1-piperidinyl]methyl]-,], the pIC50 in assay [1] is < 4.00. Besides, at human GCS [2], the IC50 was found to be 4.7 µM.

Take `C[C@H](NC(=O)c1ccc(CN2C[C@H](O)[C@@H](O)[C@@H](O)[C@@H]2CO)cc1)c1ccccc1` [Example 3, Benzamide, N-[1-(S)-(phenyl)ethyl]-4-[[(2S,3S,4R,5S)-3,4,5-trihydroxy-2-(hydroxymethyl)-1-piperidinyl]methyl]-,]: the pIC50 in assay [1] is 4.83. Also, on human GCS [2], the IC50 turned out to be 7.2 µM.

In general, IC50 refers to the point on the concentration scale where inhibition reaches its midpoint. A word on the pIC50: it is the IC50 on a negative log10 scale, so that one unit is a factor of ten. Read a low pIC50 as a large IC50.
